Test results published in US5639887A, “MDR reversal agents” (priority 1995, dated 1997).
In brackets after ≈: the same amount, converted by molar mass.

Tests used:
[1] = tested on: bisantrene-resistant human ovarian carcinoma cells S1-B1-20 (OVCAR-3 subclone); assay: Screening assay for reversal agents: Difference Score with/without 20 μM bisantrene; assay type: cell-based; conditions: alone vs with 20 μM bisantrene, 3 days, difference in % cell survival; for Difference Score at 1 microM: test agent 1 microM; for Difference Score at 10 microM: test agent 10 microM; for Difference Score at 20 microM: test agent 20 microM
Procedure: Such cells are sorted by a fluorescent activated cell sorter (FACS; Becton Dickinson Model 440).
Cells, prepared by trypsinization, are plated at 20,000 cells/well in media with and without bisantrene. Then, test agents at varying concentrations are added to the cells. […] Completed plates are incubated for 3 days at 37° C. in a moisturized 7% CO2 atmosphere. […] Dye content/well is read at 540 nm in a microtiter reader. Values are electronically processed, % cell survival compared to untreated cells is computed, and the results are expressed as the difference between these values. Experiments are run in the presence of the test agent alone and the test agent in combination with 20 μM bisantrene. The Difference Score between those two experiments is reported below for 3 different concentrations of test agent.

[2] = tested on: vincristine resistant murine leukemia P388/VCR; assay: In vivo evaluation of MDR-1 reversal agents against vincristine resistant murine leukemia P388/VCR implanted IP in CDF1 mice; conditions: days 1-7, IP; for % ILS: vs vincristine alone
Procedure: Tumor cell ascites are harvested 5-7 days later. For drug testing, groups of 10-15 CDF1 mice (DBA/2×Balb/cF1 hybrids; Charles River Laboratories, Inc) are injected IP with 0.5 ml of diluted ascitic fluid containing 1×10^6 viable P388/VCR tumor cells. […] Drugs are administered once daily, by the IP, intravenous (IV) or oral route, starting one day after tumor implantation and using a variety of treatment schedules. Mice are weighed periodically, survival is recorded for 30 days post tumor implantation, and Mean survival times are calculated for all groups of mice. Statistical analysis of Mean survival times is carried out using the Student t-test.

[3] = tested on: human epidermoid carcinoma KB/8.5; assay: In vivo evaluation of MDR-1 reversal agents against human epidermoid carcinoma KB/8.5 implanted SC in athymic nude mice; design: species or system human (tumor in athymic nude mice)
Procedure: The multiple drug resistant human epidermoid carcinoma KB/8.5 is propagated in medium containing colchicine (10 nanograms/ml) to maintain drug resistance. Colchicine is removed from the medium, for two cell passages, prior to subcutaneous (SC) implant of 8×10^6 KB/8.5 tumor cells into athymic "nude" mice (Harlan Sprague Dawley). […] Individual mouse tumor mass and mean tumor mass for each treatment group is determined on Day +14 and Day +21 of the test period. For each treatment group, the Relative Tumor Growth, RTG, is calculated as follows: [formula]
Statistical analysis of Log Relative Tumor Growth is carried out using the Student t-test. Transformation of the data from absolute mean tumor mass (mgs tumor mass) to Log Relative Tumor Growth prior to statistical analysis has two beneficial effects:
1) it corrects the data for differences in mean tumor mass of the different treatment groups at the start of the test period (Day 0); and
2) the Log transformation of the data more adequately reflects the exponential growth pattern of the SC tumors and makes the use of the Student t-test more appropriate.

[4] = Limit of solubility of bisantrene; assay type: physicochemical; conditions: cell culture medium; cell culture maintenance
[5] = tested on: multiple drug resistance tumor cells; conditions: background, resensitizing agents for treatment of cancer; cited from earlier work
[6] = vincristine 0.2 + compound 6.3 mg/kg
[7] = doxorubicin 8 mg/kg IV + compound 25 mg/kg/dose SC at -2 h and +2 h
[8] = doxorubicin 8 mg/kg IV + compound 75 mg/kg/dose SC at -2 h and +2 h
[9] = doxorubicin 8 mg/kg IV + compound 200 mg/kg/dose SC at -2 h and +2 h
[10] = doxorubicin 8 mg/kg IV + compound 200 mg/kg/dose SC x2
[11] = vincristine 0.2 + compound 25 mg/kg

For “2-[6-Cyano-6(3,4-dimethoxyphenyl)-6-[(4-methylphenyl)-thio]hexyl]-1,2,3,4-tetrahydo-5-methoxy-7-isoquinoline trifluoromethanesulfonic acid [Example 102]”, the “Difference Score at 1 microM” value [1] was 30, the “Difference Score at 10 microM” value [1] was 82 and the “Difference Score at 20 microM” value [1] was 82.

In the case of “2-[7-(4-Fluorophenyl)-7-[(4-methylphenyl)thio]heptyl]-1,2,3,4-tetrahydro-6,7-isoquinoline [Example 95]”, the “Difference Score at 1 microM” value [1] is reported as 28, the “Difference Score at 10 microM” value [1] is reported as 71 and the “Difference Score at 20 microM” value [1] is reported as 57.

For COc1ccc(C(CCCCCN2CCc3cc(OC)c(OC)cc3C2)Sc2ccc(C)cc2)cc1OC (centres unmarked) [Example 41, 2-[6-(3,4-Dimethoxyphenvl]-6-[(4-methylphenyl)thio]-hexyl]-1,2,3,4-tetrahydro-6,7-dimethoxyisoquinoline], the MST [2, 6] was 14.1 days, the “% ILS” value [2, 6] was “+13%” and the “Relative Tumor Growth Day 21” value [3, 7] was 6.15. The “Relative Tumor Growth Day 21” value [3, 8] was 8.54, the “Relative Tumor Growth Day 21” value [3, 9] was 4.57 and the “toxicity remark (tox), Day 14” value [3, 10] was “tox”. The “toxicity remark (tox), Day 21” value [3, 10] was “tox” and the “Relative Tumor Growth Day 21” value ([3]; doxorubicin 8 mg/kg IV + compound […] SC at -2 h and +2 h) was 7.27.

With COc1ccc2c(c1)CCN(CCCCCC(Sc1ccc(C)cc1)c1ccc(OC)c(OC)c1)C2 (centres unmarked) [Example 46, 2-[6-(3,4-Dimethoxyphenyl)-6-[(4-methylphenyl)thio]-hexyl]-1,2,3,4-tetrahydro-6-methoxyisoquinoline] the MST [2, 11] was 16.7 days, the “% ILS” value [2, 11] was “+36%” and the “Relative Tumor Growth Day 21” value [3, 7] was 9.65. For the same compound, the “Relative Tumor Growth Day 21” value ([3]; doxorubicin 8 mg/kg IV + compound 50 mg/kg/dose SC at -2 h and +2 h) was 8.83, the “Relative Tumor Growth Day 21” value [3, 8] was 10.23 and the “Relative Tumor Growth Day 21” value ([3]; doxorubicin 8 mg/kg IV + compound 100 mg/kg/dose SC at -2 h and +2 h) was 10.91. For the same compound, the “Relative Tumor Growth Day 21” value [3, 9] was 8.99.

In the case of COc1ccc(C(C#N)(CCCCCN2Cc3cc(OC)c(OC)cc3C2)SC2CCCCC2)cc1OC (stereo not drawn) [Example 86, α-(Cyclohexylthio)-α-(3,4-dimethoxyphenyl)-1,3-dihydro5,6-dimethoxy-2(1H)-isoindoleheptane nitrile], the “Difference Score at 1 microM” value [1] is reported as 83, the “Difference Score at 10 microM” value [1] is reported as 77 and the “Difference Score at 20 microM” value [1] is reported as 29.

With COc1ccc(C(C#N)(CCCCCN2Cc3cc(OC)c(OC)cc3C2)SC2CCCCC2)cc1OC.Cl (stereo not drawn) [Example 120, α-(Cyclohexylthio)-α-(3,4-dimethoxyphenyl)-1,3-dihydro 5,6-dimethoxy-2(1H)-isoindoleheptanenitrile hydrochloride] the “Difference Score at 1 microM” value [1] was 83, the “Difference Score at 10 microM” value [1] was 59 and the “Difference Score at 20 microM” value [1] was 1.

For C(=N\NC1=NCCN1)/c1c2ccccc2c(/C=N/NC2=NCCN2)c2ccccc12 [bisantrene], the solubility [4] was 20 µM (≈ 7.97 µg/mL).

In the case of CN1CCN(CCCN2c3ccccc3Sc3ccc(C(F)(F)F)cc32)CC1 [trifluoroperizine], the “toxic side effects in the clinic” value [5] is listed as “limited by toxic side effects”.
